# Measurements: patent US8772499B2, “TRPV3 modulators” (AbbVie Inc., priority 2011, dated 2014)
# Where two headings read alike, the source gives them in different places.
# How the values were obtained:
# human TRPV3 = target: T1, human TRPV3 (Homo sapiens, UniProt Q8NET8); assay: In vitro antagonism of recombinant human TRPV3 activation (FLIPR Tetra calcium assay); type: cell-based; details: HEK293 cells stably expressing human TRPV3, agonist 2-APB at 80 μM
# T1 construct: expressed in transfected cells
# T1 sequence (Q8NET8 1-790): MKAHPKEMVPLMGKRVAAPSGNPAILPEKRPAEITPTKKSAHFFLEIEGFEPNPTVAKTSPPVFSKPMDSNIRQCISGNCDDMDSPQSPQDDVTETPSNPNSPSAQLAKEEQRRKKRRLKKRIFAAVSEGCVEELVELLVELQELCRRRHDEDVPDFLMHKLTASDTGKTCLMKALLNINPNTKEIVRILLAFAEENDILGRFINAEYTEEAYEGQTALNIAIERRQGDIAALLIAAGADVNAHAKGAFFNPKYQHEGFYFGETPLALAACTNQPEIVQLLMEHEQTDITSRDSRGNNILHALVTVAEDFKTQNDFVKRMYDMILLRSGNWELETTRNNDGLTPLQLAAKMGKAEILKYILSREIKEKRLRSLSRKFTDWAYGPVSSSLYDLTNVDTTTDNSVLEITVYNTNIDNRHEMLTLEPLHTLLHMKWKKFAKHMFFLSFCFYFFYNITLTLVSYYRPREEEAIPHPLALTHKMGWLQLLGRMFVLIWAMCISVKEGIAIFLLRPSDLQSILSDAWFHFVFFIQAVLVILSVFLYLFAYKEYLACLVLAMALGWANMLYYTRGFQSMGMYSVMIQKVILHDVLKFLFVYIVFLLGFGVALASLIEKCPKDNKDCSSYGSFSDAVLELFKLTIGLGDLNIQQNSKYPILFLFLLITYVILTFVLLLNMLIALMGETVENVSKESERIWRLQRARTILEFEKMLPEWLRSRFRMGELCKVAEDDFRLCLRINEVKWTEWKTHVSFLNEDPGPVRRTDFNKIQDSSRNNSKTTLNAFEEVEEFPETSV
# Summary of the method: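 Calcium flux read over a 10 min run: compound added at 10 s to Calcium-4-loaded human TRPV3-HEK293 cells, agonist 2-APB (80 μM, its EC80) after 3 min. IC50 derived from peak-minus-baseline signal as percentage of uninhibited 2-APB response, typically averaged over at least two runs.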
# [1] = In vitro human microsomal stability assay; type: in vitro ADME; details: human, microsomes, 0.5 h, 0.5 μM, pH 7.4
# Summary of the method: (§1)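 Metabolic stability was followed in NADPH-supplemented incubations at 37° C., using microsomes prepared from human liver or from Sprague-Dawley rat liver.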
# [2] = In vitro rat microsomal stability assay; type: in vitro ADME, rat (Sprague-Dawley); details: Sprague-Dawley, rat, microsomes, 0.5 h, 0.5 μM, pH 7.4
# Summary of the method: as §1
# [3] = actual measured value shown parenthetically, in most cases average of at least two runs, read-out: IC50
# [4] = reported range, read-out: IC50 (range class)
SMILES,IC50 (human TRPV3; [3]),IC50 (human TRPV3; [4]),HUMAN MICROSOMAL STABILITY (% REMAINING AFTER 30 MINUTES) [1],RAT MICROSOMAL STABILITY (% REMAINING AFTER 30 MINUTES) [2]
"OC(C1CCCc2cccnc21)C1(c2cccc(OC(F)(F)F)c2)CCC1 (stereo not drawn) [Example 187, (anti)-5,6,7,8-tetrahydroquinolin-8-yl{1-[3-(trifluoromethoxy)phenyl]-cyclobutyl}methanol]",> 20 µM,> 20 µM,<0.01%,<0.01%
"OC(C1CCCc2cccnc21)C1(c2cccc(OC(F)(F)F)c2)CCC1 (stereo not drawn) [Example 188, (syn)-5,6,7,8-tetrahydroquinolin-8-yl{1-[3-(trifluoromethoxy)phenyl]-cyclobutyl}methanol]",> 20 µM,> 20 µM,0.16%,<0.01%
"OC(C1CCc2cccnc21)C1(c2cccc(OC(F)(F)F)c2)CCC1 (stereo not drawn) [Example 189, (anti)-6,7-dihydro-5H-cyclopenta[b]pyridin-7-yl{1-[3-(trifluoromethoxy)-phenyl]cyclobutyl}methanol]",> 20 µM,> 20 µM,0.65%,<0.01%
"OC(C1CCc2cccnc21)C1(c2cccc(OC(F)(F)F)c2)CCC1 (stereo not drawn) [Example 190, (syn)-6,7-dihydro-5H-cyclopenta[b]pyridin-7-yl{1-[3-(trifluoromethoxy)-phenyl]cyclobutyl}methanol]",> 20 µM,> 20 µM,3.7%,<0.01%
"OC(C1CCCc2cccnc21)C1(c2ccccc2OC(F)(F)F)CCC1 (stereo not drawn) [Example 192, (syn)-5,6,7,8-tetrahydroquinolin-8-yl{1-[2-(trifluoromethoxy)phenyl]-cyclobutyl}methanol]",> 20 µM,> 20 µM,<0.01%,<0.01%
"OC(C1CCc2cccnc21)C1(c2ccccc2OC(F)(F)F)CCC1 (stereo not drawn) [Example 194, (syn)-6,7-dihydro-5H-cyclopenta[b]pyridin-7-yl{1-[2-(trifluoromethoxy)-phenyl]cyclobutyl}methanol]",> 20 µM,> 20 µM,0.08%,<0.01%
"OC(c1ccccn1)C1(c2ccc(OC(F)(F)F)cc2)CC2(C1)OCCO2 (stereo not drawn) [Example 202, pyridin-2-yl{2-[4-(trifluoromethoxy)phenyl]-5,8-dioxaspiro[3.4]oct-2-yl}-methanol]",5.17 µM,,73%,<0.01%
"NC1CCCC1C(O)C1(c2cccc(C(F)(F)F)c2)CCC1 (stereo not drawn) [Example 204, (2-aminocyclopentyl) {1-[3-(trifluoromethyl)phenyl]cyclobutyl}methanol]",1.6 µM,,>85%,>85%
"NC1CCCC1C(O)C1(c2ccc(OC(F)(F)F)cc2)CCC1 (stereo not drawn) [Example 206, (2-aminocyclopentyl) {1-[4-(trifluoromethoxy)phenyl]cyclobutyl}methanol]",2.63 µM,,83%,62%
"NC1CCCCC1C(O)C1(c2cccc(C(F)(F)F)c2)CCC1 (stereo not drawn) [Example 212, (2-aminocyclohexyl) {1-[3-(trifluoromethyl)phenyl]cyclobutyl}methanol]",2.87 µM,,>85%,3.9%
"NC1CCC1C(O)C1(c2cccc(C(F)(F)F)c2)CCC1 (stereo not drawn) [Example 213, (2-aminocyclobutyl) {1-[3-(trifluoromethyl)phenyl]cyclobutyl}methanol]",3.24 µM,,>85%,72%
"N[C@H]1CCC[C@H]1[C@H](O)C1(c2ccc(Cl)c(Cl)c2)CCC1 [Example 217, (S)-[(1R,2S)-2-aminocyclopentyl][1-(3,4-dichlorophenyl)cyclobutyl]-methanol]",3.99 µM,,73%,68%
"N[C@@H]1CCC[C@H]1[C@@H](O)C1(c2ccc(Cl)c(Cl)c2)CCC1 [Example 220, (R)-[(1R,2R)-2-aminocyclopentyl][1-(3,4-dichlorophenyl)cyclobutyl]-methanol]",0.65 µM,,>85%,67%
"N[C@@H]1CCC[C@@H]1[C@@H](O)C1(c2ccc(OC(F)(F)F)cc2)CCC1 [Example 221, (R)-[(1S,2R)-2-aminocyclopentyl]{1-[4-(trifluoromethoxy)phenyl]-cyclobutyl}methanol]",1.8 µM,,83%,56%
"N[C@@H]1CCC[C@H]1[C@@H](O)C1(c2ccc(OC(F)(F)F)cc2)CCC1 [Example 223, (R)-[(1R,2R)-2-aminocyclopentyl]{1-[4-(trifluoromethoxy)phenyl]-cyclobutyl}methanol]",2.07 µM,,>85%,65%
"N[C@@H]1CCC[C@H]1[C@@H](O)C1(c2ccc(Cl)cc2)CCC1 [Example 224, (R)-[(1R,2R)-2-aminocyclopentyl][1-(4-chlorophenyl)cyclobutyl]methanol]",4.84 µM,,>85%,70%

# Continued, values first:
IC50 (human TRPV3; [3]),IC50 (human TRPV3; [4]),HUMAN MICROSOMAL STABILITY (% REMAINING AFTER 30 MINUTES) [1],RAT MICROSOMAL STABILITY (% REMAINING AFTER 30 MINUTES) [2],SMILES
> 7.4 µM,,<0.01%,<0.01%,"OC(C1CCCc2cccnc21)C1(c2ccccc2OC(F)(F)F)CCC1 (stereo not drawn) [Example 191, (anti)-5,6,7,8-tetrahydroquinolin-8-yl{1-[2-(trifluoromethoxy)phenyl]-cyclobutyl}methanol]"
> 20 µM,> 20 µM,<0.01%,<0.01%,"OC(C1CCCc2cccnc21)C1(c2ccccc2C(F)(F)F)CCC1 (stereo not drawn) [Example 195, (anti)-5,6,7,8-tetrahydroquinolin-8-yl{1-[2-(trifluoromethyl)phenyl]-cyclobutyl}methanol]"
> 20 µM,> 20 µM,0.26%,<0.01%,"OC(C1CCc2cccnc21)C1(c2ccccc2C(F)(F)F)CCC1 (stereo not drawn) [Example 197, (anti)-6,7-dihydro-5H-cyclopenta[b]pyridin-7-yl{1-[2-(trifluoromethyl)-phenyl]cyclobutyl}methanol]"
> 20 µM,> 20 µM,0.05%,<0.01%,"OC(C1CCc2cccnc21)C1(c2ccccc2C(F)(F)F)CCC1 (stereo not drawn) [Example 198, (syn)-6,7-dihydro-5H-cyclopenta[b]pyridin-7-yl{1-[2-(trifluoromethyl)-phenyl]cyclobutyl}methanol]"
5.25 µM,,>85%,>85%,"O[C@H](c1ccccn1)[C@]1(c2ccc(C(F)(F)F)cc2)C[C@H](O)C1 [Example 200, cis-3-[(S)-hydroxy(pyridin-2-yl)methyl]-3-[4-(trifluoromethyl)phenyl]-cyclobutanol]"
3.87 µM,,>85%,>85%,"NC1CCCC1C(O)C1(c2ccc(C(F)(F)F)cc2)CCC1 (stereo not drawn) [Example 205, (2-aminocyclopentyl) {1-[4-(trifluoromethyl)phenyl]cyclobutyl}methanol]"
2.26 µM,,>85%,41%,"N[C@@H]1CCC[C@@H]1[C@@H](O)C1(c2ccc(Cl)c(Cl)c2)CCC1 [Example 216, (R)-[(1S,2R)-2-aminocyclopentyl][1-(3,4-dichlorophenyl)cyclobutyl]-methanol]"
2.35 µM,,>85%,59%,"N[C@H]1CCC[C@@H]1[C@H](O)C1(c2ccc(OC(F)(F)F)cc2)CCC1 [Example 222, (S)-[(1S,2S)-2-aminocyclopentyl]{1-[4-(trifluoromethoxy)phenyl]-cyclobutyl}methanol]"
